In patent US20040242463A1, “Compositions for stabilizing oxygen-labile species” (priority 1999, published 2004):

Assay: Stability of formulations containing retinol, ascorbic acid and/or tocopherol, HPLC assay
Assay type: physicochemical
From the text: The stability of different formulations containing retinol, ascorbic acid and/or tocopherol as set forth in Examples 7 and 8 below were monitored in terms of appearance and HPLC assay. The degraded products of retinol, ascorbic acid or tocopherol are yellow or brownish in color. The freshly prepared samples were white creams. Discoloration to yellow or brown indicates the instability.

| Compound | Effect on stability of tocopherol | Effect of addition on the stability of retinol and tocopherol |
| --- | --- | --- |
| O=C1O[C@H]([C@@H](O)CO)C(O)=C1O [ascorbic acid] | assists in stabilizing tocopherol | – |
| CC(=O)N[C@@H](CS)C(=O)O [N-acetlcysteine, N-acetylcysteine] | – | slightly enhances |
